Test results taken from patent publication US8518973B2, “Compounds having 4-pyridylalkylthio group as a substituent” (Santen Pharmaceutical Co., Ltd., priority 2003, dated 2013).

Columns and labels:
[1] = test system: rat choroidal neovascularization model; test: Neovascularization incidence test using laser-induced rat choroidal neovascularization model; type: in vivo; settings: po, 168 h; Brown Norway rat, krypton laser photocoagulation, 30 mg/kg/day orally once a day for seven days, ratio to vehicle administration group, average of three to four individuals and six to eight eyes; read-out: Ratio of neovascularization incidence rate (% of Control)
Experimental: Neovascularization incidence tests of the present compounds were carried out using a rat choroidal neovascularization model, which is one of widely-used methods of evaluating in vivo choroidal neovascularization inhibitory effects of drugs.
As one of widely-used methods of evaluating choroidal neovascularization inhibitory effects of drugs, a neovascularization incidence test using rat choroidal neovascularization models was reported in Graefe's Arch. Cli. Exp. Ophthalmol., 235, 313-319(1997). According to the method described in the above-mentioned literature, neovascularization incidence tests of the present compounds were carried out, ratios of neovascularization incidence rates of present compounds administration groups were calculated to a neovascularization incidence rate of vehicle administration group (control group), and choroidal neovascularization inhibitory effects of the present compounds were evaluated using the obtained ratios as indexes.
A 1% aqueous methyl cellulose solution was added to each test compound to suspend it thereby to prepare a 6 mg/10 ml test compound suspension.
• 1) A 7:1 mixed solution (1 ml/kg) of a 5% ketamine hydrochloride injection and a 2% xylazine hydrochloride injection was administered intramuscularly to rats (Brown Norway, male, eight weeks old, weight: 200 to 250 g) to anesthetize them systemically. • 2) A tropicamide-phenylephrine hydrochloride ophthalmic solution (trade name: Mydrin-P) was instilled into eyes to cause mydriasis, and then photocoagulation was performed in a Bruch's membrane of each rat using a krypton laser photocoagulation apparatus. The laser irradiation was carried out at eight spots per eye sparsely avoiding thick retinal vessels in a posterior section of ocular fundus and focusing on the retinal deep site. Photocoagulation conditions were adjusted to 100 μm of spot size, […] of output and 0.1 sec. of coagulation time. • 3) After the photocoagulation, the ocular fundus was photographed to confirm photocoagulation (laser irradiation) sites. […] Method of Evaluation • 1) Seven days after the photocoagulation, 0.1 ml of a 10% aqueous fluorescein solution was injected into a tail vein of the rat, and fluorescein fundus photography was performed. • 2) Next, in the fluorescein fundus photography, a spot where fluorescence leak was not observed was judged as negative, and a spot where fluorescence leak was observed was judged as positive. Photocoagulation sites where a little fluorescence leak was observed were judged as positive when two sites are present. • 3) Neovascularization incidence rates were calculated according to the calculation equation 1. Ratios of the neovascularization incidence rates of the test compound administration groups to that of the vehicle administration group were calculated according to the calculation equation 2 from neovascularization incidence rates of respective administration groups.
The values are the average of three to four individuals and six to eight eyes.

[2] = test system: VEGF-induced HUVEC growth; test: VEGF-induced HUVEC growth reaction evaluation system (cell growth inhibitory action test); type: cell-based; settings: Homo sapiens, 72 h, 20 μg/ml test compound solution added 5 μl per well (100 μl), VEGF solution 400 ng/ml 5 μl per well, three days, absorbance at 450 nm, read-out: Cell growth inhibition rate (%)
Experimental: Cell growth inhibitory action tests were carried out using a VEGF-induced HUVEC growth reaction evaluation system (HUVEC stands for human umbilical vein endothelial cells), which is one of widely-used methods of evaluating in vitro angiogenesis inhibitory effects of drugs.
As one of widely-used methods of evaluating angiogenesis inhibitory effects of drugs, a cell growth inhibitory action test using a VEGF-induced HUVEC growth reaction evaluation system was reported in Cancer Res., 59, 99-106(1999). According to the method described in the above-mentioned literature, cell growth inhibitory action tests of the present compounds were carried out, their cell growth inhibition rates were calculated, and angiogenesis inhibitory effects of the present compounds were evaluated using the obtained rates as indexes.
Each test compound was dissolved in dimethyl sulfoxide (hereinafter abbreviated as “DMSO”), and the obtained solution was diluted with commercially available phosphoric acid buffer solution (hereinafter abbreviated as “PBS”) to prepare a 20 μg/ml test compound solution.
HUVEC was suspended in a 0.5% fetal bovine serum (hereinafter abbreviated as “FBS”)-containing F12K medium to prepare a 2×10^4 cells/ml HUVEC suspension.
VEGF was dissolved in 0.1% bovine serum albumin-containing PBS, and the obtained solution was diluted with the 0.5% FBS-containing F12K medium to prepare a 400 ng/ml VEGF solution.
• 1) The HUVEC suspension was inoculated in each amount of 100 μl into each well of a 96-well plate coated with I type collagen (2×10^3 cells per well). • 2) One day after inoculation, the test compound solution was added in an amount of 5 μl per well. • 3) One hour after adding the test compound solution, the VEGF solution was added in an amount of 5 μl per well. • 4) Three days after adding the VEGF solution, cell counting kit-8(Dojin Chemical Co., Ltd.) was added in an amount of 10 μl per well. • 5) After three hours, the above-mentioned plate was attached to an absorptiometer (multi label counter ARVO), and absorbance at 450 nm of each well suspension (hereinafter referred to as “test compound suspension”) was measured. • 6) A test was carried out in the same manner as in 1) to 5) except that 1.0% DMSO was used instead of the test compound solution.
Incubation was carried out under conditions of 37° C., 5% carbon dioxide and 95% air in an incubator throughout the above-mentioned test steps.
Cell growth inhibition rates, which are indexes of angiogenesis inhibitory effects, were calculated by the following calculation equation.

B16 cells = test: Tumor growth inhibitory action test using mouse cancer model (B16 cells); type: in vivo; settings: po, 240 h; C57BL/6 mouse, B16 cells intradermally, 100 mg/kg/day orally once a day, ten days after injection, average of nine mice; read-out: Tumor tissue weight inhibition rate (%)
Experimental: Tumor proliferation inhibitory action tests of the present compounds were carried out using a mouse cancer model, which is one of widely-used methods of evaluating in vivo anticancer effects of drugs.
As one of widely-used methods of evaluating anticancer effects of drugs, a tumor growth inhibitory action test using mouse cancer models was reported in Cancer Res., 59, 5209-5218(1999). According to the method described in the above-mentioned literature, tumor growth inhibitory action tests of the present compounds were carried out, their tumor tissue weight inhibition rates were calculated, and anticancer effects of the present compounds were evaluated using the obtained rates as indexes.
A 1% aqueous methyl cellulose solution was added to each test compound to suspend it with a sonicator thereby to prepare a 10 mg/ml test compound suspension.
Physiological saline was added to B16 cells to prepare a 3.3×10^7 cells/ml B16 cell suspension.
Calculation of Tumor Tissue Weight Inhibition Rate
Tumor tissue weight inhibition rates (the average of nine mice per group), which are indexes of anticancer effects were calculated, from the following calculation equation.

[3] = test system: rat adjuvant arthritis model; test: Paw edema inhibitory action test using rat adjuvant arthritis model; type: in vivo; settings: po, 504 h; Lewis rat, adjuvant-untreated (secondary inflammation) paw, 10 mg/kg/day orally once a day, 21 days after, average of eight rats; read-out: Paw edema inhibition rate (%)
Experimental: Paw edema inhibitory action tests of the present compounds were carried out using a rat adjuvant arthritis model, which is one of widely-used methods of evaluating in vivo antiarthritis effects of drugs.
As one of widely-used methods of evaluating antiarthritic effects of drugs, a paw edema inhibitory action test using rat adjuvant arthritis models is known. Paw edema inhibitory action tests of the present compounds were carried out, their paw edema inhibition rates were calculated, and antiarthritic effects of the present compounds were evaluated using the obtained rates as indexes.
A 1% aqueous methyl cellulose solution was added to each test compound to suspend it thereby to prepare a 2 mg/ml test compound suspension.
Liquid paraffin was added to Mycobacterium-butyricum to suspend it to prepare 6 mg/ml adjuvant.
Each paw edema inhibition rate of paw edema in an adjuvant-untreated paw (secondary inflammation paw) in each test compound administration group was calculated to paw edema in a secondary inflammation paw in a control group, and antiarthritic effects of the present compounds were evaluated using the obtained rates as indexes.
Paw edema rates were calculated from the following calculation equation 1, and then paw edema inhibition rates (the average of eight rats per group), which are indexes of the antiarthritic effects, were calculated from the calculation equation 2.

For O=C(Nc1ccc2ncccc2c1)c1cccnc1SCc1ccncc1 [1-21, 2-(4-Pyridylmethylthio)-N-(6-quinolyl)pyridine-3-carboxamide], the response vs control in vivo at 30 mg/kg/day [1] was 15%, the inhibition at 20 µg/mL (stock) [2] was 99% and the inhibition in vivo at 100 mg/kg/day (B16 cells) was 65%.

With O=C(Nc1cc2ccccc2cn1)c1cccnc1SCc1ccncc1 [1-22, N-(3-Isoquinolyl)-2-(4-pyridylmethylthio)pyridine-3-carboxamide] the inhibition in vivo at 10 mg/kg/day [3] was 27%, the inhibition at 20 µg/mL (stock) [2] was 100% and the inhibition in vivo at 100 mg/kg/day (B16 cells) was 45%.

In the case of O=C(Nc1ccc2[nH]ncc2c1)c1cccnc1SCc1ccncc1 [1-23, N-(Indazol-5-yl)-2-(4-pyridylmethylthio)pyridine-3-carboxamide], the response vs control in vivo at 30 mg/kg/day [1] is reported as 26%, the inhibition at 20 µg/mL (stock) [2] is reported as 100% and the inhibition in vivo at 100 mg/kg/day (B16 cells) is reported as 57%.

CC(C)(C)c1ccc(NC(=O)c2cccnc2SCc2ccncc2)cc1 [1-51, N-(4-tert-Butylphenyl)-2-(4-pyridylmethylthio)pyridine-3-carboxamide] was tested, and the inhibition at 20 µg/mL (stock) [2] was 98% and the inhibition in vivo at 100 mg/kg/day (B16 cells) was 59%.

Work on Cc1cc(NC(=O)c2ccccc2SCc2ccncc2)ccc1Cl [1-99, N-(4-Chloro-3-methylphenyl)-2-(4-pyridylmethylthio)benzamide] yielded an inhibition at 20 µg/mL (stock) [2] of 100% and an inhibition in vivo at 100 mg/kg/day (B16 cells) of 64%.

O=C(Nc1ccc2c(c1)CCC2)c1cccnc1SCc1ccncc1 [1-136, N-(5-Indanyl)-2-(4-pyridylmethylthio)pyridine-3-carboxamide] was tested, and the response vs control in vivo at 30 mg/kg/day [1] was 38%, the inhibition at 20 µg/mL (stock) [2] was 100% and the inhibition in vivo at 100 mg/kg/day (B16 cells) was 53%.

For O=C(Nc1ccc(OC(F)(F)F)c(Cl)c1)c1cccnc1SCc1ccncc1 [1-137, N-(3-Chloro-4-trifluoromethoxyphenyl)-2-(4-pyridylmethylthio)pyridine-3-carboxamide], the response vs control in vivo at 30 mg/kg/day [1] was 65%, the inhibition in vivo at 10 mg/kg/day [3] was 39% and the inhibition at 20 µg/mL (stock) [2] was 100%. It also gave an inhibition in vivo at 100 mg/kg/day (B16 cells) of 66%.

Compound O=C(Nc1ccc(SC(F)(F)F)cc1)c1cccnc1SCc1ccncc1 [1-158, 2-(4-Pyridylmethylthio)-N-(4-trifluoromethylthiophenyl)pyridine-3-carboxamide] has an inhibition in vivo at 10 mg/kg/day [3] of 22%, an inhibition at 20 µg/mL (stock) [2] of 100% and an inhibition in vivo at 100 mg/kg/day (B16 cells) of 76%.

In the case of Cc1cc(C)cc(NC(=O)c2cccnc2SCc2ccnc(Br)c2)c1 [1-230, 2-(2-Bromopyridin-4-ylmethylthio)-N-(3,5-dimethylphenyl)pyridine-3-carboxamide], the inhibition at 20 µg/mL (stock) [2] is reported as 100% and the inhibition in vivo at 100 mg/kg/day (B16 cells) is reported as 66%.

Compound O=C(Nc1ccc2cn[nH]c2c1)c1cccnc1SCc1ccncc1 [1-296, N-(Indazol-6-yl)-2-(4-pyridylmethylthio)pyridine-3-carboxamide] has a response vs control in vivo at 30 mg/kg/day [1] of 24%, an inhibition at 20 µg/mL (stock) [2] of 100% and an inhibition in vivo at 100 mg/kg/day (B16 cells) of 71%.

Cc1cc(C)cc(NC(=O)c2cccnc2SCc2cc[n+]([O-])cc2)c1 [4-4, N-(3,5-Dimethylphenyl)-2-(1-oxopyridin-4-ylmethylthio)pyridine-3-carboxamide] was tested, and the response vs control in vivo at 30 mg/kg/day [1] was 26%, the inhibition in vivo at 10 mg/kg/day [3] was 21% and the inhibition at 20 µg/mL (stock) [2] was 100%. It also gave an inhibition in vivo at 100 mg/kg/day (B16 cells) of 77%.

For O=C(Nc1ccc2c(c1)CCC2)c1cccnc1SCc1cc[n+]([O-])cc1 [4-8, N-(5-Indanyl)-2-(1-oxopyridin-4-ylmethylthio)pyridine-3-carboxamide], the inhibition at 20 µg/mL (stock) [2] was 98% and the inhibition in vivo at 100 mg/kg/day (B16 cells) was 80%.

O=C(Nc1ccc(OC(F)(F)F)cc1)c1cccnc1SCc1cc[n+]([O-])cc1 [4-9, 2-(1-Oxopyridin-4-ylmethylthio)-N-(4-trifluoromethoxyphenyl)pyridine-3-carboxamide] was tested, and the inhibition at 20 µg/mL (stock) [2] was 100% and the inhibition in vivo at 100 mg/kg/day (B16 cells) was 77%.

For O=C(Nc1ccc(OC(F)(F)F)c(Cl)c1)c1cccnc1SCc1cc[n+]([O-])cc1 [4-11, N-(3-Chloro-4-trifluoromethoxyphenyl)-2-(1-oxopyridin-4-ylmethylthio)-pyridine-3-carboxamide], the inhibition at 20 µg/mL (stock) [2] was 100% and the inhibition in vivo at 100 mg/kg/day (B16 cells) was 62%.
